Data set [1] is classed as physicochemical. Conditions: for first onset of weight loss / weight loss continues up to / water loss (initial weight loss): TGA; for first onset of weight loss / weight loss continues up to: nitrogen flow; for water loss (initial weight loss): equivalents of water. Here is the method:
TGA measurements were carried out on a METTLER TOLEDO TGA/SDTA 851e. Samples were placed in open aluminum oxide crucible. All experiments were performed under nitrogen flow.
A thermal analysis of all forms was performed in order to characterize the fasoracetam forms and to identify the stability of different forms. TGA measurements (FIG. 21) clearly mark the difference between the hydrated and anhydrated form. […] The weight loss continues up to 185° C. When the temperature is increased further, degradation occurs, starting around 260° C. The initial loss corresponds to 1.1 equivalent of water, as expected for a 1:1 stoichiometric hydrate. The slight deviation from the ideal stoichiometric ratio can be attributed to the crystallization conditions (the bulk material was obtained from an aqueous solution and the water remaining on the crystal surface or trapped between crystals is likely to cause the deviation observed). […] Analogous to Form I, degradation occurs which starts around 268° C. The observed water loss here is 0.9 equivalent, which is expected for a stoichiometric hydrate.

The nature of data set [2]: DSC enthalpy of fusion of fasoracetam forms. Type of data set: physicochemical. Here is the method:
DSC measurements were performed on a DSC 821 METTLER TOLEDO under continuous nitrogen flow. Perforated aluminium crucibles were used for analysis. Onsets were determined by manually constructing a tangent to the peak and a prolongation of the baseline. Total enthalpies were calculated by manual peak integration using a linear interpolation between the initial and final temperatures of integration. To obtain the normalized enthalpy, the total enthalpy was divided by the total sample mass. Ramp rates were typically done at 5° C./minute Using Burger's Heat of Fusion rule for both hydrated forms (Table 6), they should be monotropically related. Because both hydrates were obtained from different solvents (water and methanol for Forms I and II, respectively), a slurrying experiment where both vials were seeded with the opposite hydrate was performed and left under these conditions for 1 week.

Data set [3] is described as follows: Slurrying experiment of both hydrates seeded with the opposite hydrate, XRPD analysis. Conditions: water and methanol slurries seeded with the opposite hydrate, 1 week. Type of data set: physicochemical. Here is the method:
Using Burger's Heat of Fusion rule for both hydrated forms (Table 6), they should be monotropically related. Because both hydrates were obtained from different solvents (water and methanol for Forms I and II, respectively), a slurrying experiment where both vials were seeded with the opposite hydrate was performed and left under these conditions for 1 week.

A short description of data set [4]: Hygroscopicity of the solid form. Type of data set: physicochemical. Here is the method:
In further embodiments of the disclosure, R-fasoracetam anhydrate is provided. […] This lack of water of crystallization is a characterizing feature of the anhydrate of R-fasoracetam with respect to Form I or Form II. FIG. 13 is an XRPD pattern of the anhydrate and any one or more of the peaks in that XRPD pattern may be used to characterize the anhydrate. Thus, one or more peaks at about 8.9°2θ, about 13.1°2θ, about 15.2°2θ, about 17.8°2θ, about 18.7°2θ, about 20.3°2θ, and about 22.7°2⊖ may be used to characterize the anhydrate form of R-fasoracetam. The anhydrate has an onset melting temperature at about 94° C. Thus, in another embodiment, an onset melting point of about 94° C. together with one or more peaks at about 8.9°2θ, about 13.1°2θ, about 15.2°2θ, about 17.8°2θ, about 18.7°2θ, about 20.3°2θ, and about 22.7°2⊖ may be used to characterize R-fasoracetam anhydrate. R-fasoracetam anhydrate may be further characterized by a diffraction pattern substantially the same as that of FIG. 13. A DSC thermogram of R-fasoracetam anhydrate appears in FIG. 25. The ramp rate was at 10° C. per minute. The R-fasoracetam anhydrate being hygroscopic, the sample in FIG. 25 was obtained by keeping R-fasoracetam monohydrate Form I under vacuum for a prolonged period at a temperature of 65° C.

The nature of data set [5]: Storage of the anhydrate at ambient conditions, conversion tracked daily via XRPD. Type of data set: physicochemical. Conditions: 1-week period.
The test system of a further data set is mGluRs. Conditions: in vitro; cited from earlier work.
For data set [6] the following is noted: cited from earlier work.

Read-outs that look alike come from different tables or passages of the source.

Consider `O=C1CC[C@H](C(=O)N2CCCCC2)N1` [Form I, R-fasoracetam monohydrate Form I, reference compound], for which, in data set [1], the degradation starts entry was “around 260 °C”, the “first onset of weight loss” value worked out at 41 °C, the “weight loss continues up to” value is 185 °C and the “water loss (initial weight loss)” value was determined as 1.1 equivalent. In addition, in data set [2] (listed as Fasoracetam hydrate I), the “Enthalpy of Fusion (ΔHfus, J/g)” value was -120.9 J/g.

In the case of `O=C1CC[C@H](C(=O)N2CCCCC2)N1` [Form II, R-fasoracetam monohydrate Form II], in data set [1], the degradation starts result is “around 268 °C”, the “first onset of weight loss” value was determined as 41 °C, the “weight loss continues up to” value is 183 °C and the “water loss (initial weight loss)” value is reported as 0.9 equivalent. The “solid form stability in slurry” value in data set [3] is reported as “complete solution mediated polymorphic transition from Form II to Form I”. Besides, the “Enthalpy of Fusion (ΔHfus, J/g)” value in data set [2] (listed as Fasoracetam hydrate II) was -79.0 J/g.

Turning to `O=C1CC[C@H](C(=O)N2CCCCC2)N1` [anhydrate, R-fasoracetam anhydrate], the hygroscopicity result in data set [4] is listed as “hygroscopic”. Moreover, the “conversion of solid form on storage” value in data set [5] was “conversion to the stable hydrate occurs at ambient conditions over a 1-week period”. For the same compound, in data set [1], the degradation starts result is “around 260 °C” and the “first onset of weight loss” value was “no particular weight loss up until degradation”. Moreover, the “Enthalpy of Fusion (ΔHfus, J/g)” value in data set [2] is -76.7 J/g.

For the compound `O=C1CC[C@H](C(=O)N2CCCCC2)N1` [fasoracetam, R-fasoracetam], the “activity against mGluRs” value in the data set with mGluRs is “nonselective activator against all classes of mGluRs”. The “treatment of further disorders” value in data set [6] (subjects having ADHD and 22q11.2 Deletion Syndrome, anxiety, conduct disorder, Tourette's syndrome) was “successful”. Further, the “treatment of ADHD” value in data set [6] (subjects having a genetic alteration in an mGluR network gene, clinical trial) is given as “successfully treated”.

Source of the values: patent US12110284B2, “Fasoracetam crystalline forms” (The Children's Hospital of Philadelphia, priority 2018, dated 2024).
